Test results taken from the NIST ThermoML archive (doi:10.1016/j.jct.2004.10.011).

Assay: xn = mol fraction of the nth substance listed
Conditions: Liquid, Vibrating tube method

CCC(=O)c1ccccc1 [ethyl phenyl ketone] + Cc1ccccc1
mass density [kg/m3]
Conditions	x2 = 0	x2 = 0.1048	x2 = 0.2025	x2 = 0.3006	x2 = 0.3991	x2 = 0.4998	x2 = 0.6004	x2 = 0.7036	x2 = 0.8028	x2 = 0.902
318.15 K, 100 kPa	988.3	976.2	965	952.8	940	926.14	911.27	895.5	879.2	861.9
318.15 K, 2130 kPa	989.6	977.6	966.4	954.3	941.4	927.61	912.78	897	880.8	863.6
318.15 K, 4150 kPa	990.9	978.9	967.7	955.6	942.8	929.03	914.26	898.5	882.4	865.2
318.15 K, 6180 kPa	992.1	980.1	969	956.9	944.1	930.44	915.7	900	883.9	866.8
318.15 K, 8210 kPa	993.3	981.4	970.2	958.2	945.5	931.83	917.14	901.5	885.4	868.4
318.15 K, 10230 kPa	994.6	982.7	971.5	959.5	946.8	933.2	918.57	903	886.9	870
318.15 K, 11250 kPa	995.2	983.3	972.1	960.1	947.5	933.86	919.25	903.7	887.7	870.7
318.15 K, 12260 kPa	995.8	983.9	972.8	960.8	948.1	934.53	919.93	904.4	888.4	871.5
318.15 K, 14290 kPa	997	985.1	974	962	949.4	935.85	921.32	905.8	889.8	873
318.15 K, 16310 kPa	998.1	986.3	975.2	963.3	950.7	937.19	922.68	907.2	891.3	874.5
318.15 K, 18340 kPa	999.3	987.5	976.4	964.5	952	938.52	924.03	908.6	892.7	876
318.15 K, 20370 kPa	1000.4	988.7	977.6	965.7	953.2	939.75	925.33	909.9	894.1	877.4
318.15 K, 22390 kPa	1001.6	989.9	978.8	967	954.5	941.04	926.66	911.2	895.5	878.9
318.15 K, 24420 kPa	1002.7	991	980	968.1	955.7	942.28	927.93	912.5	896.8	880.3
318.15 K, 26450 kPa	1003.8	992.1	981.1	969.3	956.8	943.5	929.18	913.8	898.2	881.6
318.15 K, 28470 kPa	1004.9	993.3	982.2	970.5	958	944.7	930.43	915.1	899.5	883
318.15 K, 29490 kPa	1005.5	993.8	982.8	971.1	958.6	945.34	931.09	915.7	900.1	883.7
318.15 K, 30500 kPa	1006	994.4	983.4	971.6	959.2	945.93	931.69	916.4	900.8	884.3
318.15 K, 32530 kPa	1007.1	995.5	984.5	972.8	960.4	947.12	932.92	917.6	902.1	885.7
318.15 K, 34550 kPa	1008.2	996.6	985.6	973.9	961.5	948.29	934.11	918.8	903.3	887
318.15 K, 36580 kPa	1009.2	997.7	986.7	975	962.7	949.45	935.3	920	904.6	888.3
318.15 K, 38600 kPa	1010.3	998.7	987.8	976.1	963.7	950.58	936.48	921.2	905.8	889.5
318.15 K, 39620 kPa	1010.8	999.3	988.3	976.6	964.3	951.19	937.08	921.9	906.4	890.2
328.15 K, 100 kPa	979.6	967.8	956.5	944.4	931.4	917.54	902.56	886.7	870.2	852.8
328.15 K, 2130 kPa	981.1	969.1	957.8	945.7	932.8	918.96	904.06	888.3	871.8	854.5
328.15 K, 4150 kPa	982.4	970.5	959.2	947.1	934.3	920.45	905.6	889.9	873.5	856.2
328.15 K, 6180 kPa	983.7	971.8	960.5	948.5	935.7	921.95	907.14	891.5	875.1	857.9
328.15 K, 8210 kPa	985	973.1	961.8	949.9	937.1	923.37	908.63	893	876.7	859.6
328.15 K, 10230 kPa	986.2	974.5	963.2	951.2	938.5	924.82	910.11	894.5	878.3	861.2
328.15 K, 11250 kPa	986.9	975.1	963.8	951.9	939.2	925.52	910.85	895.3	879	862
328.15 K, 12260 kPa	987.5	975.7	964.5	952.5	939.9	926.2	911.57	896	879.8	862.8
328.15 K, 14290 kPa	988.7	977	965.8	953.9	941.2	927.61	913.02	897.5	881.4	864.5
328.15 K, 16310 kPa	990	978.3	967.1	955.2	942.6	928.98	914.44	898.9	882.9	866
328.15 K, 18340 kPa	991.2	979.5	968.3	956.5	943.9	930.34	915.83	900.4	884.4	867.6
328.15 K, 20370 kPa	992.3	980.8	969.6	957.7	945.2	931.69	917.22	901.8	885.8	869.1
328.15 K, 22390 kPa	993.5	982	970.8	959	946.5	933.04	918.61	903.2	887.3	870.6
328.15 K, 24420 kPa	994.7	983.2	972	960.2	947.7	934.34	919.95	904.6	888.7	872
328.15 K, 26450 kPa	995.9	984.4	973.2	961.5	949	935.61	921.26	905.9	890.1	873.5
328.15 K, 28470 kPa	997.1	985.6	974.5	962.7	950.2	936.91	922.59	907.2	891.5	874.9
328.15 K, 29490 kPa	997.6	986.2	975	963.3	950.8	937.56	923.26	908	892.2	875.7
328.15 K, 30500 kPa	998.2	986.7	975.6	963.9	951.5	938.18	923.89	908.6	892.9	876.4
328.15 K, 32530 kPa	999.3	987.9	976.8	965.1	952.7	939.41	925.17	909.9	894.2	877.7
328.15 K, 34550 kPa	1000.4	989	978	966.2	953.9	940.65	926.43	911.2	895.6	879.1
328.15 K, 36580 kPa	1001.5	990.2	979.1	967.4	955.1	941.85	927.68	912.5	896.9	880.4
328.15 K, 38600 kPa	1002.6	991.3	980.3	968.6	956.2	943.07	928.95	913.7	898.2	881.8
328.15 K, 39620 kPa	1003.2	991.9	980.8	969.1	956.9	943.64	929.53	914.4	898.8	882.4
